Source: patent publication US12485169B2, “Compounds” (GREY WOLF THERAPEUTICS LIMITED, priority 2018, dated 2025)

Biological target: T1, Purified ERAP1 (37-941)-10His (ERAP1) (Homo sapiens, UniProt Q9NZ08)
T1 construct: Purified ERAP1 (37-941)-10His (ERAP1)
Experiment: ERAP1 mediated hydrolysis of an amide substrate (10-mer inhibition assay), biochemical system
Details: 10-mer substrate, 23° C., 1 h, excitation 279 nm / emission 355 nm; read-out: IC50 vs Decapeptide WRVYEKC(Dnp)ALK-acid (where Dnp is Dinitrophenyl maleimide) (10-mer)
Experimental: However, as ERAP1 hydrolyses the N-terminal amide bond and tryptophan is released this internal quenching is lost and the reaction is monitored by the increase in tryptophan fluorescence over the course of the assay. For the purposes of this application this assay is referred to as the “10mer inhibition assay” and compound potencies are calculated and expressed as IC50 as would be familiar to a person skilled in the art.
Biological Assay 1: ERAP1 Mediated Hydrolysis of an Amide Substrate Measured in a Biochemical System
Decapeptide WRVYEKC(Dnp)ALK-acid (where Dnp is Dinitrophenyl maleimide) (10-mer) L-Leucine 7-amido-4-methylcoumarin (L-AMC)
12.5 μL ERAP1 enzyme in 1×AB was combined with 250 nL test compound in DMSO. […] For detection, plates were read at excitation 365 nm and emission 442 nm (L-AMC) or excitation 279 nm and emission 355 nm (10-mer).

T1 sequence (Q9NZ08 37-941): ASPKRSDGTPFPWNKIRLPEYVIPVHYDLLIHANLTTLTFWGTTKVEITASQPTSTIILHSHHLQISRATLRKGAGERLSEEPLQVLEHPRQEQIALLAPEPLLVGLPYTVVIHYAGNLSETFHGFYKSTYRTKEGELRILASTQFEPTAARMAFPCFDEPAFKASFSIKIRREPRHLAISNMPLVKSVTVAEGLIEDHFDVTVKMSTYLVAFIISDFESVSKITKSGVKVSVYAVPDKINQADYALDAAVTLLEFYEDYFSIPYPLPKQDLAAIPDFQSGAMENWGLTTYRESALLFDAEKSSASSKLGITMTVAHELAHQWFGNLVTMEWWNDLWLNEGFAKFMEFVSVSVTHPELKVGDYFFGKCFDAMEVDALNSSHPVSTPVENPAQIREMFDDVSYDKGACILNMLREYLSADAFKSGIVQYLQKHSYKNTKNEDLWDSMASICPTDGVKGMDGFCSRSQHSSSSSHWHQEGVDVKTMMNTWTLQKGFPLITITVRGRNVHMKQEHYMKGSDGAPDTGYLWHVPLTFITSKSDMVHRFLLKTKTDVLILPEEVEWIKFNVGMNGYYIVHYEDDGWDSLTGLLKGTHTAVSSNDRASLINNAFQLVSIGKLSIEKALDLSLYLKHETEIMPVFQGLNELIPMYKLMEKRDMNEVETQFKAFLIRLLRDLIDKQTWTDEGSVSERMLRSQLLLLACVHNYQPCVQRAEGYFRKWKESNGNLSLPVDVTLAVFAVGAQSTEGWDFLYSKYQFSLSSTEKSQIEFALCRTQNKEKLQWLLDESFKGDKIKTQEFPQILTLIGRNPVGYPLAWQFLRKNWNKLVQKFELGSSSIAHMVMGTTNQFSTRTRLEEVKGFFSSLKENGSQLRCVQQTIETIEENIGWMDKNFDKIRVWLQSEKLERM

IC50	Compound
< 5000 nM	COc1ccc(C(=O)O)cc1S(=O)(=O)Nc1cc(C(F)(F)F)ccc1N1C[C@H](O)[C@@H](F)C1 (relative stereo) [Example 190, 3-(N-(2-(trans-3-fluoro-4-hydroxypyrrolidin-1-yl)-5-(trifluoromethyl)phenyl)sulfamoyl)-4-methoxybenzoic acid]
< 500 nM	CCc1ccc(C(=O)O)cc1S(=O)(=O)Nc1cc(C(F)(F)F)ccc1N1CCCCC1 [Example 1, 4-Ethyl-3-(N-(2-(piperidin-1-yl)-5-(trifluoromethyl)phenyl)sulfamoyl)benzoic acid]
< 500 nM	CC(C)c1ccc(C(=O)O)cc1S(=O)(=O)Nc1cc(C(F)(F)F)ccc1N1CCCCC1 [Example 3, 4-isopropyl-3-(N-(2-(piperidin-1-yl)-5-(trifluoromethyl)phenyl)sulfamoyl)benzoic acid]
< 500 nM	O=C(O)c1ccc(OC(F)(F)F)c(S(=O)(=O)Nc2cc(C(F)(F)F)ccc2N2CCCCC2)c1 [Example 4, 3-(N-(2-(piperidin-1-yl)-5-(trifluoromethyl)phenyl)sulfamoyl)-4-(trifluoromethoxy)benzoic acid]
< 500 nM	COc1ccc(C(=O)O)cc1S(=O)(=O)Nc1cc(C(F)(F)F)ccc1N1C[C@H](C)C[C@H](C)C1 [Example 6, 3-(N-(2-(cis-3,5-dimethylpiperidin-1-yl)-5-(trifluoromethyl)phenyl)sulfamoyl)-4-methoxybenzoic acid]
< 5000 nM	COc1ccc(C(=O)O)cc1S(=O)(=O)Nc1cc(C(F)(F)F)ccc1N1CC2CCC(C1)O2 [Example 7, 3-(N-(2-(8-oxa-3-azabicyclo[3.2.1]octan-3-yl)-5-(trifluoromethyl)phenyl)sulfamoyl)-4-methoxybenzoic acid]
> 5000 nM	COc1ccc(C(=O)O)cc1S(=O)(=O)Nc1cc(C(F)(F)F)ccc1N1C[C@H]2CN(C)C[C@H]2C1 [Example 8, 4-methoxy-3-(N-(2-(cis-5-methylhexahydropyrrolo[3,4-c]pyrrol-2 (1H)-yl)-5-(trifluoromethyl)phenyl)sulfamoyl)benzoic acid]
< 500 nM	COc1ccc(C(=O)O)cc1S(=O)(=O)Nc1cc(C(F)(F)F)ccc1N1CCCC(F)(F)C1 [Example 9, 3-(N-(2-(3,3-difluoropiperidin-1-yl)-5-(trifluoromethyl)phenyl)sulfamoyl)-4-methoxybenzoic acid]
< 500 nM	COc1ccc(C(=O)O)cc1S(=O)(=O)Nc1cc(C(F)(F)F)ccc1N1C2CCCC1CC2 [Example 10, 3-(N-(2-(8-azabicyclo[3.2.1]octan-8-yl)-5-(trifluoromethyl)phenyl)sulfamoyl)-4-methoxybenzoic acid]
< 5000 nM	COc1ccc(C(=O)O)cc1S(=O)(=O)Nc1cc(C(F)(F)F)ccc1N1CC2(CCCO2)C1 [Example 11, 3-(N-(2-(5-oxa-2-azaspiro[3.4]octan-2-yl)-5-(trifluoromethyl)phenyl)sulfamoyl)-4-methoxybenzoic acid]
< 500 nM	COc1ccc(C(=O)O)cc1S(=O)(=O)Nc1cc(C(F)(F)F)ccc1N1CCC(F)(F)CC1 [Example 12, 3-(N-(2-(4,4-difluoropiperidin-1-yl)-5-(trifluoromethyl)phenyl)sulfamoyl)-4-methoxybenzoic acid]
< 500 nM	COc1ccc(C(=O)O)cc1S(=O)(=O)Nc1cc(C(F)(F)F)ccc1N1CC2CCC(C1)C2O (centres unmarked) [Example 13, 3-(N-(2-(8-hydroxy-3-azabicyclo[3.2.1]octan-3-yl)-5-(trifluoromethyl)phenyl)sulfamoyl)-4-methoxybenzoic acid]
< 500 nM	COc1ccc(C(=O)O)cc1S(=O)(=O)Nc1cc(C(F)(F)F)ccc1N1CCC(O)C(F)(F)C1 (centres unmarked) [Example 14, 3-(N-(2-(3,3-difluoro-4-hydroxypiperidin-1-yl)-5-(trifluoromethyl)phenyl)sulfamoyl)-4-methoxybenzoic acid]
< 500 nM	CCC1(O)CCN(c2ccc(C(F)(F)F)cc2NS(=O)(=O)c2cc(C(=O)O)ccc2OC)CC1 [Example 15, 3-(N-(2-(4-ethyl-4-hydroxypiperidin-1-yl)-5-(trifluoromethyl)phenyl)sulfamoyl)-4-methoxybenzoic acid]
< 500 nM	COc1ccc(C(=O)O)cc1S(=O)(=O)Nc1cc(C(F)(F)F)ccc1N1CCC(OC)C(C)(C)C1 (centres unmarked) [Example 16, 4-methoxy-3-(N-(2-(4-methoxy-3,3-dimethylpiperidin-1-yl)-5-(trifluoromethyl)phenyl)sulfamoyl)benzoic acid]
> 5000 nM	COc1ccc(C(=O)O)cc1S(=O)(=O)Nc1cc(C(F)(F)F)ccc1N1CCC(O)(C(F)(F)F)CC1 [Example 17, 3-(N-(2-(4-hydroxy-4-(trifluoromethyl)piperidin-1-yl)-5-(trifluoromethyl)phenyl)sulfamoyl)-4-methoxybenzoic acid]

IC50	Compound
< 5000 nM	COc1ccc(C(=O)O)cc1S(=O)(=O)Nc1cc(C(F)(F)F)ccc1N1CC(C)(O)C1 [Example 18, 3-(N-(2-(3-hydroxy-3-methylazetidin-1-yl)-5-(trifluoromethyl)phenyl)sulfamoyl)-4-methoxybenzoic acid]
< 5000 nM	COc1ccc(C(=O)O)cc1S(=O)(=O)Nc1cc(C(F)(F)F)ccc1N1CC2(CCO2)C1 [Example 19, 3-(N-(2-(1-oxa-6-azaspiro[3.3]heptan-6-yl)-5-(trifluoromethyl)phenyl)sulfamoyl)-4-methoxybenzoic acid]
< 5000 nM	COc1ccc(C(=O)O)cc1S(=O)(=O)Nc1cc(C(F)(F)F)ccc1N1CCC(C)(O)C1 (centres unmarked) [Example 20, 3-(N-(2-(3-hydroxy-3-methylpyrrolidin-1-yl)-5-(trifluoromethyl)phenyl)sulfamoyl)-4-methoxybenzoic acid]
> 5000 nM	COc1ccc(C(=O)O)cc1S(=O)(=O)Nc1cc(C(F)(F)F)ccc1N1CC(O)(C2CC2)C1 [Example 21, 3-(N-(2-(3-cyclopropyl-3-hydroxyazetidin-1-yl)-5-(trifluoromethyl)phenyl)sulfamoyl)-4-methoxybenzoic acid]
> 5000 nM	COc1ccc(C(=O)O)cc1S(=O)(=O)Nc1cc(C(F)(F)F)ccc1N1CC(C)(OC)C1 [Example 22, 4-methoxy-3-(N-(2-(3-methoxy-3-methylazetidin-1-yl)-5-(trifluoromethyl)phenyl)sulfamoyl)benzoic acid]
> 5000 nM	COc1ccc(C(=O)O)cc1S(=O)(=O)Nc1cc(C(F)(F)F)ccc1N1[C@@H]2CC[C@H]1C[C@@H](O)C2 [Example 23, 3-(N-(2-(endo-3-hydroxy-8-azabicyclo [3.2.1]octan-8-yl)-5-(trifluoromethyl)phenyl)sulfamoyl)-4-methoxybenzoic acid]
< 500 nM	COc1ccc(C(=O)O)cc1S(=O)(=O)Nc1cc(C(F)(F)F)ccc1N1CCC(O)C(C)(C)C1 (centres unmarked) [Example 24, 3-(N-(2-(4-hydroxy-3,3-dimethylpiperidin-1-yl)-5-(trifluoromethyl)phenyl)sulfamoyl)-4-methoxybenzoic acid]
< 5000 nM	COc1ccc(C(=O)O)cc1S(=O)(=O)Nc1cc(C(F)(F)F)ccc1N1C[C@H]2CCCC[C@H]2C1 [Example 25, 4-methoxy-3-(N-(2-(cis-octahydroisoindol-2-yl)-5-(trifluoromethyl)phenyl)sulfamoyl)benzoic acid]
< 500 nM	COc1ccc(C(=O)O)cc1S(=O)(=O)Nc1cc(C(F)(F)F)ccc1N1CC(O)(C(F)(F)F)C1 [Example 26, 3-(N-(2-(3-hydroxy-3-(trifluoromethyl)azetidin-1-yl)-5-(trifluoromethyl)phenyl)sulfamoyl)-4-methoxybenzoic acid]
< 5000 nM	COc1ccc(C(=O)O)cc1S(=O)(=O)Nc1cc(C(F)(F)F)ccc1N1CC[C@@H](O)[C@@H](F)C1 [Example 27, 3-(N-(2-((3S,4R)-3-fluoro-4-hydroxypiperidin-1-yl)-5-(trifluoromethyl)phenyl)sulfamoyl)-4-methoxybenzoic acid]
< 500 nM	COc1ccc(C(=O)O)cc1S(=O)(=O)Nc1cc(C(F)(F)F)ccc1N1CCC(C)(O)CC1 [Example 28, 3-(N-(2-(4-hydroxy-4-methylpiperidin-1-yl)-5-(trifluoromethyl)phenyl)sulfamoyl)-4-methoxybenzoic acid]
< 500 nM	COc1ccc(C(=O)O)cc1S(=O)(=O)Nc1cc(C(F)(F)F)ccc1N1CCCC(C)(O)C1 (centres unmarked) [Example 29, 3-(N-(2-(3-hydroxy-3-methylpiperidin-1-yl)-5-(trifluoromethyl)phenyl)sulfamoyl)-4-methoxybenzoic acid]
< 500 nM	CCc1ccc(C(=O)O)cc1S(=O)(=O)Nc1cc(C(F)(F)F)ccc1N1C[C@H](C)C[C@H](C)C1 [Example 30]
< 500 nM	COc1ccc(C(=O)O)cc1S(=O)(=O)Nc1cc(C(F)(F)F)ccc1N1CCCCC1(C)C [Example 31, 3-(N-(2-(2,2-dimethylpiperidin-1-yl)-5-(trifluoromethyl)phenyl)sulfamoyl)-4-methoxybenzoic acid]
< 500 nM	COc1ccc(C(=O)O)cc1S(=O)(=O)Nc1cc(C(F)(F)F)ccc1N1CCCOCC1 [Example 32, 3-(N-(2-(1,4-oxazepan-4-yl)-5-(trifluoromethyl)phenyl)sulfamoyl)-4-methoxybenzoic acid]
< 500 nM	COc1ccc(C(=O)O)cc1S(=O)(=O)Nc1cc(C(F)(F)F)ccc1N1CCC2(CC1)OCc1ccccc12 [Example 33, 3-(N-(2-(spiro[isobenzofuran-1,4′-piperidin]-1′-yl)-5-(trifluoromethyl)phenyl)sulfamoyl)-4-methoxybenzoic acid]
